Experiments:
[1] = Intrinsic clearance in human liver microsomes; assay type: ADME, Microsome; settings: read-out: CLH
physchem = settings: pH 7.4

SMILES	microsomal CLint [1]	logD (physchem; octanol/phosphate buffer)	logD (physchem; octanol/water)
CC(C)(C)OC(=O)N1CCN(c2ncc(OCc3ccc(S(C)(=O)=O)cc3)cn2)CC1	47 µL/min/mg	3.2	
CC(C)(C)OC(=O)N1CCN(c2ccc(OCc3ccc(S(C)(=O)=O)cc3)nn2)CC1		2.8	
CC(C)(C)OC(=O)N1CCN(c2ccc(OCc3ccc(S(C)(=O)=O)cc3)cn2)CC1		3.2	
CC(C)(C)OC(=O)N1CCN(c2ccc(OCc3ccc(S(C)(=O)=O)cc3)cc2)CC1			3.9
C[C@@H]1CN(c2ncc(OCc3ccc(S(C)(=O)=O)cc3)cn2)CCN1C(=O)OC(C)(C)C		> 3.7	
C[C@@H]1CN(c2ncc(OCc3ccc(S(C)(=O)=O)cc3)cn2)[C@@H](C)CN1C(=O)OC(C)(C)C		> 3.7	
CC(C)(C)OC(=O)N1C[C@@H]2C[C@H]1CN2c1ncc(OCc2ccc(S(C)(=O)=O)cc2)cn1		2.8	
CC(C)(C)OC(=O)N1C[C@@H]2CC[C@H]1CN2c1ncc(OCc2ccc(S(C)(=O)=O)cc2)cn1		3.4	
C[C@@H]1CN(C(=O)OC(C)(C)C)CCN1c1ncc(OCc2ccc(C#N)cc2)cn1		> 3.6	

Other lines, results leading:

microsomal CLint [1]	logD (physchem; octanol/phosphate buffer)	logD (physchem; octanol/water)	SMILES
259 µL/min/mg	4.2		CC(C)(C)OC(=O)N1CCN(c2ncc(-c3ccc(OCC#N)cc3)cn2)CC1
		3.4	CC(C)(C)OC(=O)N1CCN(c2cnc(OCc3ccc(S(C)(=O)=O)cc3)cn2)CC1
	2.9		CC(C)(C)OC(=O)N1CCN(c2ncc(OCc3ccc(S(C)(=O)=O)cc3)nn2)CC1
		2.8	CC(C)(C)OC(=O)N1CCC(c2ncc(OCc3ccc(S(C)(=O)=O)cc3)cn2)CC1
	3.5		C[C@H]1CN(C(=O)OC(C)(C)C)CCN1c1ncc(OCc2ccc(S(C)(=O)=O)cc2)cn1
	3.5		C[C@@H]1CN(C(=O)OC(C)(C)C)CCN1c1ncc(OCc2ccc(S(C)(=O)=O)cc2)cn1
	> 3.6		C[C@H]1CN(c2ncc(OCc3ccc(S(C)(=O)=O)cc3)cn2)CCN1C(=O)OC(C)(C)C
	> 3.6		C[C@@H]1CN(C(=O)OC(C)(C)C)C[C@H](C)N1c1ncc(OCc2ccc(S(C)(=O)=O)cc2)cn1
	3.5		C[C@@H]1CN(C(=O)OC(C)(C)C)CCN1c1ncc(OCC2CCN(S(C)(=O)=O)CC2)cn1
	> 4.3		C[C@@H]1CN(C(=O)OC(C)(C)C)CCN1c1ncc(OCc2ccc(S(=O)(=O)N(C)C)cc2)cn1
